The values that follow come from patent US6290993A, “Compositions containing mimosa phenolic compounds” (E-L Management Corp., priority 1999, dated 2001).

The assay has as its system Normal human dermal fibroblasts. Nature of the assay: Collagen-increasing activity, ELISA for collagen type 1 or procollagen type 1. The class given is cell-based. The settings on record: 5 ng/ml, positive control, 4 days incubation. As to the method: Normal human dermal fibroblasts are seeded and grown to confluence in a 96-well plate prior to being treated with M. pudica extract or fractions thereof, prepared by solvent/solvent extractions (heptane/70% ethanol, ethyl acetate/water) at various concentrations in complete medium. Media alone serves as negative control and TGF-β serves as positive control. The plates are incubated for 4 days at 37° C./5% CO2 before the supernatants are harvested and stored at -70° C. until an ELISA is performed. Antibodies to collagen type 1 or procollagen type 1 are used for ELISA analysis to determine collagen levels.
A general note: In an ELISA, binding on a coated surface is turned into a signal by an enzyme label.

TGF-β: the “increase in collagen levels” value was 46%.
